Experimental data as given in publication PMC3199943, “Screening the MayBridge Rule of 3 Fragment Library for Compounds That Interact with the Trypanosoma brucei myo-Inositol-3-Phosphate Synthase and/or Show Trypanocidal Activity” (Molecular Biology International, 2011).
Like-named read-outs stand apart in the source and are kept apart here.

Assays:
HeLa cells = assay: cells; details: for viability at 500 µM / CC50: Homo sapiens, HeLa; for viability at 500 µM: 65 h; for HeLa Cells Alamar Blue: Supplementary Table 1; for CC50: read-out: HeLa ED50
Outline: (§1)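 Alamar Blue read-out after a 5 h dye incubation that followed ~65 h compound exposure. Cells: HeLa or A549, 2 × 10^4/well, DMEM + 10% FCS + 2 mM L-Glutamine.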

A549 cells = assay: Cytotoxicity against A549 cells, Alamar Blue; type: cell-based; details: Supplementary Table 1, compound 0.5 mM, percentage of controls (n=1); for viability at 500 µM: Homo sapiens, A549, 65 h
Outline: as §1

[1] = read-out: HeLa Cells Alamar Blue
[2] = compound 0.5 mM, percentage of controls, mean ± SD (n=3) or SE (n=2)
[3] = read-out: HeLa Cells Alamar Blue, Supplementary Table 1, compound 0.5 mM, percentage of controls, mean ± SD (n=3) or SE (n=2)

Compound | viability at 500 µM (HeLa cells; [1]) | viability at 500 µM (A549 cells) | further results
OCc1cccc(Oc2ccccn2)c1 [compound 630, [3‐(pyrid‐2‐yloxy)phenyl]methanol] | 80 ± 1% | 98.3% | 
CC(C)(C)c1ccc(N)cc1 [compound 178, 4‐(tert‐butyl)aniline] | 109 ± 18.8% | 87.6% | 
Cc1ccc2sc(CO)cc2c1 [compound 442, 5‐Methylbenzo[b]thiophene‐2‐methanol] | 71.3 ± 3.5% | 53.7% | 
Cc1onc(-c2ccccc2)c1CO [compound 534, (5‐methyl‐3‐phenyl‐4‐isoxazolyl)methanol] | 78.8 ± 15.6% | 62.9% | 
OCc1ccc2c(c1)OCCCO2 [compound 453, 3,4‐dihydro‐2H‐1,5‐benzodioxepin‐7‐ylmethanol] |  |  | HeLa Cells Alamar Blue (HeLa cells; [2]): 86.6 ± 3.2 percentage of controls; A549 Cells Alamar Blue (A549 cells): 51.6 percentage of controls
Cn1ccnc1CO [compound 34, (1‐methyl‐1H‐imidazol‐2‐yl)methanol] | 97 ± 14% | 72.1% | 
O=C(O)Cc1ccc(F)cc1 [compound 219, 2‐(4‐fluorophenyl)acetic acid] | 94.3 ± 13.4% | 98.4% | 
COc1ccccc1C1CCNCC1 [compound 560, 4‐(2‐methoxyphenyl)piperidine] | 20.2 ± 2.8% | 63.7% | 
FC(F)(F)c1nc2ccccc2[nH]1 [compound 499, 2‐(trifluoromethyl)‐1H‐benzo[d]imidazole] | 82 ± 14.1% | 116% | 
Cc1cccc(CO)n1 [compound 62, (6‐methylpyridin‐2‐yl)methanol] | 98.6 ± 7.3% | 67.5% | 
CNCc1ccc(-c2nccs2)cc1 [compound 654, N‐methyl‐4‐(1,3‐thiazol‐2‐yl)benzylamine] | 66.2 ± 16.9% | 114% | 
Nc1ccc(N2CCOCC2)cc1 [compound 435, 4‐morpholinoaniline] | 10.2 ± 6.9% | 33.5% | 
OCc1ccc(Oc2ccccc2)o1 [compound 540, (5‐phenoxy‐2‐furyl)methanol] | 13.7 ± 6.5% | 57.7% | 
Nc1ccc(Oc2ccccc2)nc1 [compound 507, 6‐phenoxy‐3‐pyridinamine] | 103 ± 15.4% | 71.8% | 
OCc1ccc2c(c1)OCCO2 [compound 320, 2,3‐dihydro‐1,4‐benzodioxin‐6‐ylmethanol] |  |  | HeLa Cells Alamar Blue (HeLa cells; [2]): 111.9 ± 16.4 percentage of controls; A549 Cells Alamar Blue (A549 cells): 78.8 percentage of controls
Cc1ccccc1S(N)(=O)=O [compound 355, 2‐methylbenzene‐1‐sulfonamide] | 89.1 ± 16.6% | 87.9% | 
CCN(CC)CCc1ccccn1 [compound 443, N,N‐diethyl‐N‐[2‐(2‐pyridyl)ethyl]amine] | 90.9 ± 9.8% | 49.2% | 
NC(=S)CSc1ccccc1 [compound 472, 2‐(phenylthio)ethanethioamide] | 76.5 ± 11.2% | 86% | 
Cc1ccc(O)c2c1CCC2 [compound 173, 7‐methylindan‐4‐ol] | 43.2 ± 15.6% | 53.7% | 

Compound | viability at 500 µM (HeLa cells; [1]) | viability at 500 µM (A549 cells) | further results
NCc1ccc(F)cc1 [compound 71, 4‐fluorobenzylamine] | 93.3 ± 10.3% | 110% | 
c1ccc(-c2c[nH]cn2)cc1 [compound 149, 4‐phenyl‐1H‐imidazole] | 80.2 ± 11.7% | 99.1% | 
Oc1ccc(Oc2ccccc2)cc1 [compound 502, 4‐phenoxyphenol] |  | 53.1% | viability at 500 µM (HeLa cells; [3]): 39.6 ± 16.6%
NCc1ccc(CN2CCCCC2)cc1 [compound 658, [4‐(piperidinomethyl)phenyl]methylamine] |  |  | HeLa Cells Alamar Blue (HeLa cells; [2]): 22.8 ± 5.5 percentage of controls; A549 Cells Alamar Blue (A549 cells): 123.5 percentage of controls
Cc1cc(C(F)(F)F)c(C#N)cn1 [compound 498, 6‐methyl‐4‐(trifluoromethyl)nicotinonitrile] |  |  | HeLa Cells Alamar Blue (HeLa cells; [2]): 102.9 ± 18.5 percentage of controls; A549 Cells Alamar Blue (A549 cells): 107.7 percentage of controls
CC(=O)c1ccc(F)c(Cl)c1 [compound 367, 1‐(3‐chloro‐4‐fluorophenyl)ethan‐1‐one] | 98.7 ± 6.5% | 58.8% | 
C#Cc1ccc(OCCCC)cc1 [compound 388, 1‐butoxy‐4‐eth‐1‐ynylbenzene] | 107 ± 8% | 114% | 
OCc1ccc(-c2cccnc2)cc1 [compound 489, (4‐pyrid‐3‐ylphenyl)methanol] | 66.4 ± 18.8% | 131% | 
O=C(O)c1ccc(C(F)(F)F)cc1 [compound 539, 4‐(trifluoromethyl)benzoic acid] | 92.4 ± 8.2% | 104% | 
CNCc1cccc(-c2nccs2)c1 [compound 653, N‐methyl‐3‐(1,3‐thiazol‐2‐yl)benzylamine] | 93.3 ± 2.7% | 99.6% | 
OCc1cccc(-c2ccncc2)c1 [compound 491, (3‐pyrid‐4‐ylphenyl)methanol] | 34.4 ± 13.8% | 66.8% | 
Oc1ncnc2cccc(F)c12 [compound 296, 5‐fluoroquinazolin‐4‐ol] |  | 63.7% | viability at 500 µM (HeLa cells; [3]): 92.7 ± 1.9%
O=C(O)C1CCOCC1 [compound 92, tetrahydro‐2H‐pyran‐4‐carboxylic acid] | 78.4 ± 15.8% | 118% | 
Cc1cccc(N2CCNCC2)c1C [compound 549, 1‐(2,3‐dimethylphenyl)piperazine] | 10.1 ± 5.7% | 13.6% | 
NC(=O)NCc1ccc(F)cc1 [compound 334, N‐(4‐fluorobenzyl)urea] | 112 ± 4.7% | 91.8% | 
OCc1ccc(Cn2cccn2)cc1 [compound 529, [4‐(1H‐pyrazol‐1‐ylmethyl)phenyl]methanol] |  |  | HeLa Cells Alamar Blue (HeLa cells; [2]): 85 ± 5.2 percentage of controls; A549 Cells Alamar Blue (A549 cells): 94 percentage of controls
Cc1cccc(N)c1N [compound 55, 3‐methylbenzene‐1,2‐diamine] | 11.2 ± 7.2% | 26.5% | 
O=C1CCC2CC1CCC2=O [compound 206, bicyclo[3.3.1]nonane‐2,6‐dione] | 80.8 ± 7.6% | 42.1% | 
N#Cc1ccc(-c2ccco2)nc1 [compound 344, 6‐(2‐furyl)nicotinonitrile] | 48.9 ± 5% | 104% | 

Compound | viability at 500 µM (HeLa cells; [1]) | viability at 500 µM (A549 cells) | further results
O=C(O)CSCc1ccccc1 [compound 465, 2‐(benzylthio)acetic acid] | 99 ± 9.3% | 67.9% | 
CC(=O)c1nccs1 [compound 79, 1‐(1,3‐thiazol‐2‐yl)ethan‐1‐one] | 103 ± 16.6% | 94.5% | 
OCc1ccc(N2CCCC2)nc1 [compound 437, [6‐(1‐pyrrolidinyl)‐3‐pyridinyl]methanol] | 9.3 ± 4.8% | 44.3% | 
Nc1ccc(Cn2ccnc2)cc1 [compound 375, 4‐(1H‐imidazol‐1‐ylmethyl)aniline] | 88 ± 18.8% | 90.7% | 
COC(=O)c1ccccc1C#N [compound 274, methyl 2‐cyanobenzoate] | 91 ± 19.6% | 64% | 
NCc1cccc(-n2cccc2)c1 [compound 364, 3‐(1H‐pyrrol‐1‐yl)benzylamine] | 29.5 ± 12.9% | 56.9% | CC50 (HeLa cells): 40.4 ± 1.8 µM
Cc1cc(N)c(N)cc1Cl [compound 240, 4-chloro-5-methylbenzene-1,2-diamine] | 12.1 ± 8.7% | 14.7% | CC50 (HeLa cells): 454 ± 55 µM
OCc1cccc(Cn2ccnc2)c1 [compound 527, [3‐(1H‐imidazol‐1‐ylmethyl)phenyl]methanol] |  |  | HeLa Cells Alamar Blue (HeLa cells; [2]): 80.7 ± 17.6 percentage of controls; A549 Cells Alamar Blue (A549 cells): 69.2 percentage of controls
CNCc1cccc(N2CCCCC2)c1 [compound 656, N‐methyl‐N‐(3‐piperidin‐1‐ylbenzyl)amine] | 27.4 ± 13.3% | 104% | 
N#Cc1cnccc1C(F)(F)F [compound 358, 4‐(trifluoromethyl)nicotinonitrile] | 103 ± 1.7% | 129% | 
O=C(C1CCCNC1)N1CCCC1 (centres unmarked) [compound 468, 3‐piperidinyl(1‐pyrrolidinyl)methanone] | 110 ± 13.3% | 80.7% | 
CC(C)(C)c1cccc(N)c1 [compound 179, 3‐(tert‐butyl)aniline] | 99.3 ± 14.7% | 77.9% | 
Nc1ccccc1N1CCNCC1 [compound 429, 2‐piperazin‐1‐ylaniline] | 78.5 ± 7.7% | 54.3% | 
O=C(O)c1ccc(-c2cccnc2)cc1 [compound 612, 4‐pyrid‐3‐ylbenzoic acid] |  | 74.2% | viability at 500 µM (HeLa cells; [3]): 77.2 ± 5.7%
OCc1ccc(-c2ccccn2)cc1 [compound 490, (4‐pyrid‐2‐ylphenyl)methanol] | 102 ± 13.5% | 118% | 
Nc1ccccc1-n1cccn1 [compound 260, 2‐(1H‐pyrazol‐1‐yl)aniline] | 98.1 ± 5.6% | 97.3% | 
CCOC(=O)Cc1ccc(N)cc1 [compound 446, ethyl 2‐(4‐aminophenyl)acetate] | 80.1 ± 14.8% | 63.2% | 
OCc1ccccc1C(F)(F)F [compound 407, [2‐(trifluoromethyl)phenyl]methanol] | 104 ± 13.9% | 90.2% | 
NC(=O)c1ccccc1N1CCCCC1 [compound 651, 2‐piperidinobenzamide] | 82.4 ± 5.4% | 93.1% | 
